# Values quoted from earlier work in patent publication US12097208B2, “Method for treating nasal, sinonasal, and nasopharyngeal tissue infection and/or inflammation” (OTICARA, INC., priority 2019, dated 2024).
# Legend:
# [1] = in vivo
SMILES,Biological Half Life [1],other results
"CCC(=O)OCC(=O)[C@@]1(OC(=O)CC)[C@@H](C)C[C@H]2C3CCC4=CC(=O)C=CC4(C)[C@@]3(F)[C@@H](O)CC21C (stereo partly drawn) [Betamethasone dipropionate, 9-Fluoro-11β,17,21-trihydroxy-16β-methylpregna-1,4-diene-3,20-dione 17,21-dipropionate]",36-54 Hours,–
C[C@H]1C[C@@H]2[C@H]([C@@H](O)C[C@@]3(C)[C@H]2CC[C@]3(O)C(=O)CO)[C@@]2(C)C=CC(=O)C=C12 [Methyl-prednisolone],18-36 Hours,–
Clc1ccccc1C(c1ccccc1)(c1ccccc1)n1ccnc1 [clotrimazole],–,Antibacterial activity against Gardnerella vaginalis (Gardnerella vaginalis): antibacterial activity; Effect on Pseudomonas aeruginosa (Pseudomonas aeruginosa): reduction; Antibacterial activity against Corynebacteria (Corynebacteria): antibacterial activity; Antibacterial activity against Staphylococci (Staphylococci): antibacterial activity; Antibacterial activity against Steptococci (Steptococci): antibacterial activity
C[C@]12CCC(=O)C=C1CC[C@@H]1[C@@H]2[C@@H](O)C[C@@]2(C)[C@H]1CC[C@]2(O)C(=O)CO [hydrocortisone],8-12 Hours,–
C[C@]12C=CC(=O)C=C1CC[C@@H]1[C@@H]2[C@@H](O)C[C@@]2(C)[C@H]1CC[C@]2(O)C(=O)CO [prednisolone],18-36 Hours,–
C[C@]12C=CC(=O)C=C1CC[C@H]1[C@@H]3C[C@@H](O)[C@](O)(C(=O)CO)[C@@]3(C)C[C@H](O)[C@@]12F [triamcinolone],18-36 Hours,–
